Consider 46 molecules from ChEMBL document CHEMBL5236638, “Optimization of First-in-Class Dual-Acting FFAR1/FFAR4 Allosteric Modulators with Novel Mode of Action” (ACS Med Chem Lett, 2022).

Format in all cases: cell-based
Experiment [1] addresses T1, Free fatty acid receptor 4 (Homo sapiens, UniProt Q5NUL3).
T1 sequence (Q5NUL3 whole entry): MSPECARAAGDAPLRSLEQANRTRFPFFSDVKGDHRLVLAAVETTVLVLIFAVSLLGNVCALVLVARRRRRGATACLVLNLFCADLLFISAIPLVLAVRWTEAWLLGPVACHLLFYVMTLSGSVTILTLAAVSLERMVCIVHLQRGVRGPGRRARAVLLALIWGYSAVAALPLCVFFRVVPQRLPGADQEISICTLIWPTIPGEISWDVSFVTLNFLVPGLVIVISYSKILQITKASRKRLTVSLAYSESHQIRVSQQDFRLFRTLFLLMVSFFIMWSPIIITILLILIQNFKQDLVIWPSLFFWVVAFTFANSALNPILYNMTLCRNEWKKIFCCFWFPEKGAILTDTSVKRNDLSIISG
Kind of experiment: Agonist activity at N-terminal FLAG tagged human FFAR4 transfected in African green monkey COS-7 cells assessed as accumulation of inositol phosphate incubated for 90 mins by TopCount NXT counter based analysis.

Experiment [2] concerns the target Free fatty acid receptor 1 (Homo sapiens, UniProt O14842). Put plainly: Agonist activity at N-terminal FLAG tagged human FFAR1 transfected in African green monkey COS-7 cells assessed as accumulation of inositol phosphate incubated for 90 mins by TopCount NXT counter based analysis.
Experiment [3] has as its target T2, Free fatty acid receptor 4 (Homo sapiens) (UniProt Q5NUL3).
T2 sequence (whole entry): T1 sequence (Q5NUL3 whole entry)
Put plainly: Agonist activity at N-terminal FLAG tagged human FFAR4 transfected in African green monkey COS-7 cells assessed as accumulation of inositol phosphate at 10 uM incubated for 90 mins by TopCount NXT counter based analysis relative to control.

Sequence of Free fatty acid receptor 1 (O14842 whole entry): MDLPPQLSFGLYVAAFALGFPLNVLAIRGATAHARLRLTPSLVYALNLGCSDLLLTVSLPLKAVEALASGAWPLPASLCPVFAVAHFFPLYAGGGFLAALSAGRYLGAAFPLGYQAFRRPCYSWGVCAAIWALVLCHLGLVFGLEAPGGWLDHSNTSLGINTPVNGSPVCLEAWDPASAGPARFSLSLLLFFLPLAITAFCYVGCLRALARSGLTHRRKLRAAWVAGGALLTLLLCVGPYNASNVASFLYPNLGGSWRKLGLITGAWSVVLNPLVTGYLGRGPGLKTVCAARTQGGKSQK

Regarding `Cc1ccc(Nc2nc(N)nc(COc3cc(N4CCCC4=O)ccc3C)n2)cc1Cl`, the values for the EC50 in experiment [1] and in experiment [2] were 18.2 µM and 7.45 µM, respectively. Besides, the Emax – broadly, the size of the effect at its maximum, as opposed to the concentration needed – in experiment [3] (filed as agonist) stood at 43%.
The corresponding values for `Cc1ccc(Nc2nc(N)nc(COc3ccc4ccc(=O)oc4c3)n2)cc1` are 4.39 µM, 1.28 µM and 49%.
With `CCc1cc(=O)oc2cc(OCc3nc(N)nc(Nc4ccc(C)cc4)n3)ccc12`, the EC50 (in general, the concentration that produces a half-maximal response) in experiment [1] worked out at 1.32 µM; in experiment [2] it was 2.64 µM. The maximal response (Emax) in experiment [3] was determined as 37%.
The corresponding values for `Cc1cc(OCc2nc(N)nc(NCCc3ccc(Cl)cc3Cl)n2)cc(N2CCCC2=O)c1` are 0.025 µM, 0.044 µM and 18%.
On to `COc1cccc(CCNc2nc(N)nc(COc3cc(C)cc(N4CCCC4=O)c3)n2)c1`, for which the results for the EC50 in experiment [1] and in experiment [2] were 0.014 µM and 0.012 µM, respectively. Besides, in experiment [3] (filed as agonist), the Emax was found to be 46%.
For `Cc1ccc(Nc2nc(N)nc(COc3cccc(N4CCCC4=O)c3F)n2)cc1Cl`, the EC50 in experiment [2] worked out at 14.1 µM.
Regarding `Cc1cc(OCc2nc(N)nc(NCCc3ccc(Cl)c(C)c3)n2)cc(N2CCCC2=O)c1`, the values for the EC50 in experiment [1] and in experiment [2] were 0.004 µM and 0.014 µM, respectively. Also, the maximum response (Emax) in experiment [3] was 30%.
As to `Cc1cccc(CCNc2nc(N)nc(COc3cc(C)cc(N4CCCC4=O)c3)n2)c1`, the EC50 in experiment [2] stood at 0.007 µM.
`Cc1cc(OCc2nc(N)nc(NCCc3ccccc3OC(F)F)n2)cc(N2CCCC2=O)c1`: the EC50 came out at 0.178 µM in experiment [1] and 0.108 µM in experiment [2]. For the same molecule, in experiment [3], the Emax came to 30%.
Regarding `Cc1ccc(Nc2nc(N)nc(COc3cc(N4CCCC4=O)cc(C(F)(F)F)c3)n2)cc1Cl`, the EC50 in experiment [2] turned out to be 3.19 µM.
Still for that read-out and setting: next, `Cc1cc(OCc2nc(N)nc(NCC3(c4cccc(Cl)c4)CC3)n2)cc(N2CCCC2=O)c1`: 0.048 µM.
In the case of `COc1ccc(OCc2nc(N)nc(Nc3ccc(C)c(Cl)c3)n2)cc1N1CCCC1=O`, the values for the EC50 in experiment [1] and in experiment [2] were 31.4 µM and 20.2 µM, respectively. In experiment [3] (filed as agonist), the Emax was 53%.
As for `Cc1cc(OCc2nc(N)nc(NCCc3ccccc3)n2)cc(N2CCCC2=O)c1`, the EC50 in experiment [1] turned out to be 0.033 µM; in experiment [2], 0.025 µM. Moreover, the Emax in experiment [3] came out at 38%.
The corresponding values for `Cc1cc(OCc2nc(N)nc(NCCc3ccc(C)c(Cl)c3)n2)cc(N2CCCC2=O)c1` are 0.008 µM, 0.007 µM and 32%.
Consider `Cc1ccc(Nc2nc(N)nc(COc3cc(N4CCCC4=O)ccc3F)n2)cc1Cl`, for which the EC50 in experiment [1] stood at 13.8 µM; in experiment [2], 33.1 µM. Also, the Emax in experiment [3] worked out at 27%.
Regarding `COc1cc(OCc2nc(N)nc(Nc3ccc(C)c(Cl)c3)n2)cc(N2CCCC2=O)c1`, the EC50 in experiment [1] amounted to 0.6 µM; in experiment [2], 1.8 µM. Moreover, the Emax in experiment [3] (filed as agonist) came out at 43%.
`Cc1ccc(Nc2nc(N)nc(COc3cccc(N4CCCS4(=O)=O)c3)n2)cc1Cl`: the EC50 in experiment [2] came to 9.7 µM.
Turning to `Cc1cc(OCc2nc(N)nc(NCCc3cc(C)ccc3F)n2)cc(N2CCCC2=O)c1`, the 50% effective concentration (EC50) in experiment [1] was 0.386 µM; in experiment [2], 0.003 µM. Moreover, in experiment [3] (filed as agonist), the Emax stood at 40%.
Take `Cc1cc(=O)oc2cc(OCc3nc(N)nc(Nc4ccc(Cl)cc4)n3)ccc12`: the half-maximal effective concentration (EC50) in experiment [2] worked out at 32.5 µM.
For the molecule `Cc1ccc(Nc2nc(N)nc(COc3cccc(N4CCCC4=O)c3C)n2)cc1Cl`, the EC50 in experiment [1] was determined as 14.4 µM; in experiment [2] it was 11.1 µM. The Emax in experiment [3] (filed as agonist) was 46%.
For `Cc1cc(=O)oc2cc(OCc3nc(N)nc(Nc4cccc(Cl)c4)n3)ccc12`, the concentration giving a half-maximal response (EC50) in experiment [2] came out at 1.11 µM.
With `Cc1cc(OCc2nc(N)nc(NCCc3ccccc3C(F)(F)F)n2)cc(N2CCCC2=O)c1`, the EC50 in experiment [1] was 0.01 µM; in experiment [2], 0.012 µM. Besides, in experiment [3], the Emax was found to be 38%.
Regarding `Cc1ccc(Nc2nc(N)nc(COc3ccc4c5c(c(=O)oc4c3)CCC5)n2)cc1`, the EC50 in experiment [2] was 2.22 µM.
`Cc1ccc(Nc2nc(N)nc(COc3ccc(Cl)c(N4CCCC4=O)c3)n2)cc1Cl`: the figures for the EC50 in experiment [1] and in experiment [2] were 3.03 µM and 2.45 µM, respectively. For the same molecule, the Emax in experiment [3] (filed as agonist) came to 42%.
`Cc1cc(OCc2nc(N)nc(NCCc3cccc(C(F)(F)F)c3)n2)cc(N2CCCC2=O)c1`: the EC50 came to 0.01 µM in experiment [1] and 0.012 µM in experiment [2]. Besides, in experiment [3], the Emax amounted to 35%.
Take `Cc1ccc(Nc2nc(N)nc(COc3cc(N4CCCC4=O)ccc3C(F)(F)F)n2)cc1Cl`: the EC50 is 11.9 µM in experiment [1] and 20.1 µM in experiment [2]. Moreover, the Emax in experiment [3] (filed as agonist) was 41%.
`COc1ccccc1CCNc1nc(N)nc(COc2cc(C)cc(N3CCCC3=O)c2)n1`: the EC50 in experiment [1] is 0.014 µM; in experiment [2], 0.034 µM. Further, the maximum response (Emax) in experiment [3] stood at 23%.
The corresponding values for `Cc1ccc(Nc2nc(N)nc(COc3ccc4c(C)cc(=O)oc4c3)n2)cc1` are 1.21 µM, 1.79 µM and 39%.
As to `Cc1cc(OCc2nc(N)nc(NCCc3ccc(Cl)cc3)n2)cc(N2CCCC2=O)c1`, the EC50 in experiment [2] stood at 0.193 µM.
For `Cc1ccc(Nc2nc(N)nc(COc3ccc4c(C(F)F)cc(=O)oc4c3)n2)cc1`, the EC50 came out at 1.57 µM in experiment [1] and 3.18 µM in experiment [2]. In addition, in experiment [3], the Emax was found to be 27%.
For the molecule `Cc1ccc(Nc2nc(N)nc(COc3cc(OC(F)(F)F)cc(N4CCCC4=O)c3)n2)cc1Cl`, the EC50 in experiment [1] turned out to be 2.19 µM. The Emax in experiment [3] is 38%.
As for `Cc1ccc(Nc2nc(N)nc(COc3cc(Cl)cc(N4CCCC4=O)c3)n2)cc1Cl`, the EC50 in experiment [1] was determined as 0.15 µM; in experiment [2], 0.16 µM. In addition, the Emax in experiment [3] (filed as agonist) worked out at 43%.
Turning to `Cc1cc(=O)oc2cc(OCc3nc(N)nc(Nc4ccc5ccccc5c4)n3)ccc12`, the EC50 in experiment [2] is 0.7 µM.
Turning to `Cc1ccc(Nc2nc(N)nc(COc3cc(F)cc(N4CCCC4=O)c3)n2)cc1Cl`, the EC50 in experiment [1] turned out to be 1.2 µM; in experiment [2] it was 1.8 µM. Further, the Emax in experiment [3] (filed as agonist) stood at 47%.
Consider `Cc1ccc(Nc2nc(N)nc(COc3cc(C#N)cc(N4CCCC4=O)c3)n2)cc1Cl`, for which the results for the EC50 in experiment [1] and in experiment [2] were 14.3 µM and 4.17 µM, respectively. Further, the Emax in experiment [3] was 26%.
As to `Cc1ccc(Nc2nc(N)nc(COc3cc(N4CCCC4=O)cc(C(C)(C)C)c3)n2)cc1Cl`, the EC50 in experiment [1] stood at 0.64 µM.
Turning to `Cc1cc(OCc2nc(N)nc(NCCc3ccccc3F)n2)cc(N2CCCC2=O)c1`, in experiment [2], the EC50 is 0.011 µM.
Consider `Cc1ccc(Nc2nc(N)nc(COc3ccc4c(C)cc(=O)oc4c3)n2)cc1C`, for which the EC50 in experiment [2] was found to be 0.21 µM.
Same read-out and setting: next, `Cc1cc(=O)oc2cc(OCc3nc(N)nc(Nc4ccc(C5CC5)cc4)n3)ccc12`: 0.7 µM.
As to `Cc1cc(OCc2nc(N)nc(NCCc3cccc(S(F)(F)(F)(F)F)c3)n2)cc(N2CCCC2=O)c1`, the EC50 in experiment [2] was 0.032 µM. Besides, the Emax in experiment [3] (filed as agonist) is 95%.
With `Cc1cc(=O)oc2cc(OCc3nc(N)nc(Nc4ccc(Cl)c(Cl)c4)n3)ccc12`, the EC50 in experiment [1] was found to be 0.36 µM; in experiment [2] it was 0.78 µM.
For the molecule `Cc1cc(=O)oc2cc(OCc3nc(N)nc(Nc4ccc5c(c4)COC5)n3)ccc12`, the EC50 in experiment [2] was found to be 1.33 µM.
`CCCc1cc(=O)oc2cc(OCc3nc(N)nc(Nc4ccc(C)cc4)n3)ccc12`: the EC50 in experiment [2] worked out at 2.9 µM.
Still for that read-out and setting: the result for `Cc1cc(=O)oc2cc(OCc3nc(N)nc(Nc4ccc(F)cc4)n3)ccc12` reads 18.3 µM; that for `Cc1cc(OCc2nc(N)nc(NCC(c3c(F)cccc3F)N(C)C)n2)cc(N2CCCC2=O)c1` (configuration not stated), 7.43 µM; that for `Cc1cc(=O)oc2cc(OCc3nc(N)nc(NCc4ccc(F)cc4)n3)ccc12`, 7.82 µM.
